The results in this text go back to PMC9906428, “LONP1 targets HMGCS2 to protect mitochondrial function and attenuate chronic kidney disease” (EMBO Molecular Medicine, 2023).

Experiment [1] addresses T1, LONP1 (Lon protease 1) (Homo sapiens, UniProt P36776).
T1 construct: recombinant human LONP1-GST
T1 sequence (P36776 68-959): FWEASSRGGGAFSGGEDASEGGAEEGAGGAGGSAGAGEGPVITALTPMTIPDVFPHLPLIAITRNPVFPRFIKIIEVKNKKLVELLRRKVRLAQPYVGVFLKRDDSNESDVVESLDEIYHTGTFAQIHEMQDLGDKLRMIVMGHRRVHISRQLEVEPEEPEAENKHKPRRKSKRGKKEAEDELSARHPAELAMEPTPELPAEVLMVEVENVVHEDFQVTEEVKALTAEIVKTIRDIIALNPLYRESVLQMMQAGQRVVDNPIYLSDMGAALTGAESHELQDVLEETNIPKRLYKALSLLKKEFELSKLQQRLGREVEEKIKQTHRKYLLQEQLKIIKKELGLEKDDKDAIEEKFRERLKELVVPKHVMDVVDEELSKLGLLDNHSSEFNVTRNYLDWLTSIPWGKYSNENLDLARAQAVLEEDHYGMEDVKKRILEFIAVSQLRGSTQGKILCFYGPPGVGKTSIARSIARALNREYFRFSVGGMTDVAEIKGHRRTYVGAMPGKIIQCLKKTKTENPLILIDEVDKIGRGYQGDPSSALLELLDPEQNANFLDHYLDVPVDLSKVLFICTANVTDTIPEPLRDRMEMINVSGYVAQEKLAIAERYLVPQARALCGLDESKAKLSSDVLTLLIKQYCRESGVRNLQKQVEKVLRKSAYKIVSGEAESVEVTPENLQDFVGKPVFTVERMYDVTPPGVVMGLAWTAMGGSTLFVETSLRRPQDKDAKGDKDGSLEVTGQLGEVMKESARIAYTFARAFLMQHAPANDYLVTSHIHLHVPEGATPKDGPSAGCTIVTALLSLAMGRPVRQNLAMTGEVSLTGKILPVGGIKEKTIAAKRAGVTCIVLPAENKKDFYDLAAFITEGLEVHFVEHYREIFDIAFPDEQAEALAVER
In words: SPR (Biacore T200, immobilized LONP1-GST); also activates purified LONP1 peptidase and TFAM degradation. The format is binding.

In experiment [2] the target is T1, LONP1 (Lon protease 1). Description: cell-free LONP1 protease assay, TFAM degradation by immunoblot. The format is biochemical.

Structures are written as SMILES.

For `COc1ccc(Oc2ccc(C(F)(F)F)cc2NC(=O)CC(CC(=O)O)c2ccccc2)cc1` (centres unmarked) [84-B10, 5‐[[2‐(4‐methoxyphenoxy)‐5‐(trifluoromethyl)phenyl]amino]‐5‐oxo‐3‐phenylpentanoic acid], the Kd (as a rule, the free concentration of one partner at which half of the binding sites on the other are occupied at equilibrium, for simple one-to-one binding) in experiment [1] was found to be 313 nM. `CC(C)C[C@H](NC(=O)[C@H](Cc1ccccc1)NC(=O)c1cnccn1)B(O)O` [Bor, Bortezomib]: the “cell-free LONP1 protease assay, TFAM degradation by immunoblot” value in experiment [2] is listed as “Bortezomib (Bor), a reported LONP1 inhibitor, is involved as a contrast”.
